# pIC50: −log10 of the molar value. Where two headings read alike, the source gives them in different places.
# What was measured:
# hSCN9A = target: T1, hSCN9A (Homo sapiens, UniProt Q15858); assay: Whole-cell patch-clamp electrophysiology (conventional or PatchXpress), HEK cells expressing hSCN9A, estimated IC-50; type: cell-based; details: read-out: SCN9A EIC-50
# T1 construct: expressed in transfected cells
# Procedure, shortened: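 Stably transfected HEK cells recorded by whole-cell voltage clamp (manual or PatchXpress) at 22–24 °C in pH 7.4 HEPES-buffered extracellular solution. Cells held at the empirically determined inactivation V1/2 after an 8 s prepulse, then stepped to 0 mV for 20 ms; % inhibition from current amplitude before vs after compound.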
# hSCN3A = target: T2, hSCN3A (Homo sapiens, UniProt Q9NY46); assay: Whole-cell patch-clamp electrophysiology (conventional or PatchXpress), HEK cells expressing hSCN3A, estimated IC-50; type: cell-based; details: read-out: SCN3A EIC-50
# T2 construct: expressed in transfected cells
# Protocol: Human Embryonic Kidney (HEK) cells were transfected with hSCN3A or hSCN9A constructs using lipofectamine reagent (Invitrogen), using standard techniques. Cells stably expressing the hSCN3A or hSCN9A constructs were identified by their resistance to G-418 (400 μg/ml). Clones were screened for expression using the whole-cell voltage-clamp technique. HEK cells stably transfected with hSCN3A or hSCN9A were maintained in DMEM medium supplemented with 10% heat-inactivated fetal bovine serum and 400 μg/ml G418 sulfate in an incubator at 37° C. with a humidified atmosphere of 10% CO2. For HTS, cells were harvested from flasks by trypsinization and replated in an appropriate multi-well plate (typically 96 or 384 wells/plate) such that confluence would be achieved within 24 hours of plating. For electrophysiological studies, cells were removed from the culture flask by brief trypsinization and replated at low density onto glass cover slips. Cells were typically used for electrophysiological experiments within 24 to 72 h after plating. Cover slips containing HEK cells expressing hSCN3A or hSCN9A were placed in a bath on the stage of an inverted microscope and perfused (approximately 1 ml/min) with extracellular solution of the following composition: 138 mM NaCl, 2 mM CaCl2, 5.4 mM KCl, 1 mM MgCl2, 10 mM glucose, and 10 mM HEPES, pH 7.4, with NaOH. […] All recordings were made at room temperature (22-24° C.) using AXOPATCH 200B amplifiers and PCLAMP software (Axon Instruments, Burlingame, Calif.) or PatchXpress 7000 hardware and associated software (Axon Instruments, Burlingame, Calif.). hSCN3A or hSCN9A currents in HEK cells were measured using the whole-cell configuration of the patch-clamp technique (Hamill et al., 1981). […] As a result, voltage errors were negligible and no correction was applied. Current records were acquired at 20 to 50 KHz and filtered at 5 to 10 KHz. HEK cells stably transfected with hSCN3A or hSCN9A were viewed under Hoffman contrast optics and placed in front of an array of flow pipes emitting either control or compound-containing extracellular solutions. All compounds were dissolved in dimethyl sulfoxide to make 10 mM stock solutions, which were then diluted into extracellular solution to attain the final concentrations desired. […] The voltage-dependence of inactivation was determined by applying a series of depolarizing prepulses (8 sec long in 10 mV increments) from a negative holding potential. The voltage was then immediately stepped to 0 mV to assess the magnitude of the sodium current. Currents elicited at 0 mV were plotted as a function of prepulse potential to allow estimation of the voltage midpoint of inactivation (V1/2). Cells were then voltage clamped at the empirically determined V1/2. Compounds were tested for their ability to inhibit hSCN3A or hSCN9A sodium channels by activating the channel with a 20 msec voltage step to 0 mV following an 8 second conditioning prepulse to the empirically determined V1-2 (Table B). Compound effect (% inhibition) was determined by difference in current amplitude before and after application of test compounds. […] In some cases electrophysiological assays were conducted with PatchXpress 7000 hardware and associated software (Molecular Devices Corp) (Table B). All assay buffers and solutions were identical to those used in conventional whole-cell voltage clamp experiments described above. hSCN3A or hSCN9A containing cells were grown as above to 50%-80% confluency and harvested by trypsinization. Trypsinized cells were washed and resuspended in extracellular buffer at a concentration of 1×10^6 cells/ml. The onboard liquid handling facility of the PatchXpress was used for dispensing cells and application of test compounds. Determination of the voltage midpoint of inactivation was as described for conventional whole-cell recordings. Cells were then voltage-clamped to the empirically determined V1/2 and current was activated by a 20 msec voltage step to 0 mV.
# [1] = Table V, estimated IC-50 from single point electrophysiology, cells clamped at V1/2
# [2] = estimated IC-50, HEK cells expressing hSCN9A, class symbols or bounds
# [3] = estimated IC-50, HEK cells expressing hSCN3A, class symbols or bounds
# T1 sequence (Q15858 whole entry): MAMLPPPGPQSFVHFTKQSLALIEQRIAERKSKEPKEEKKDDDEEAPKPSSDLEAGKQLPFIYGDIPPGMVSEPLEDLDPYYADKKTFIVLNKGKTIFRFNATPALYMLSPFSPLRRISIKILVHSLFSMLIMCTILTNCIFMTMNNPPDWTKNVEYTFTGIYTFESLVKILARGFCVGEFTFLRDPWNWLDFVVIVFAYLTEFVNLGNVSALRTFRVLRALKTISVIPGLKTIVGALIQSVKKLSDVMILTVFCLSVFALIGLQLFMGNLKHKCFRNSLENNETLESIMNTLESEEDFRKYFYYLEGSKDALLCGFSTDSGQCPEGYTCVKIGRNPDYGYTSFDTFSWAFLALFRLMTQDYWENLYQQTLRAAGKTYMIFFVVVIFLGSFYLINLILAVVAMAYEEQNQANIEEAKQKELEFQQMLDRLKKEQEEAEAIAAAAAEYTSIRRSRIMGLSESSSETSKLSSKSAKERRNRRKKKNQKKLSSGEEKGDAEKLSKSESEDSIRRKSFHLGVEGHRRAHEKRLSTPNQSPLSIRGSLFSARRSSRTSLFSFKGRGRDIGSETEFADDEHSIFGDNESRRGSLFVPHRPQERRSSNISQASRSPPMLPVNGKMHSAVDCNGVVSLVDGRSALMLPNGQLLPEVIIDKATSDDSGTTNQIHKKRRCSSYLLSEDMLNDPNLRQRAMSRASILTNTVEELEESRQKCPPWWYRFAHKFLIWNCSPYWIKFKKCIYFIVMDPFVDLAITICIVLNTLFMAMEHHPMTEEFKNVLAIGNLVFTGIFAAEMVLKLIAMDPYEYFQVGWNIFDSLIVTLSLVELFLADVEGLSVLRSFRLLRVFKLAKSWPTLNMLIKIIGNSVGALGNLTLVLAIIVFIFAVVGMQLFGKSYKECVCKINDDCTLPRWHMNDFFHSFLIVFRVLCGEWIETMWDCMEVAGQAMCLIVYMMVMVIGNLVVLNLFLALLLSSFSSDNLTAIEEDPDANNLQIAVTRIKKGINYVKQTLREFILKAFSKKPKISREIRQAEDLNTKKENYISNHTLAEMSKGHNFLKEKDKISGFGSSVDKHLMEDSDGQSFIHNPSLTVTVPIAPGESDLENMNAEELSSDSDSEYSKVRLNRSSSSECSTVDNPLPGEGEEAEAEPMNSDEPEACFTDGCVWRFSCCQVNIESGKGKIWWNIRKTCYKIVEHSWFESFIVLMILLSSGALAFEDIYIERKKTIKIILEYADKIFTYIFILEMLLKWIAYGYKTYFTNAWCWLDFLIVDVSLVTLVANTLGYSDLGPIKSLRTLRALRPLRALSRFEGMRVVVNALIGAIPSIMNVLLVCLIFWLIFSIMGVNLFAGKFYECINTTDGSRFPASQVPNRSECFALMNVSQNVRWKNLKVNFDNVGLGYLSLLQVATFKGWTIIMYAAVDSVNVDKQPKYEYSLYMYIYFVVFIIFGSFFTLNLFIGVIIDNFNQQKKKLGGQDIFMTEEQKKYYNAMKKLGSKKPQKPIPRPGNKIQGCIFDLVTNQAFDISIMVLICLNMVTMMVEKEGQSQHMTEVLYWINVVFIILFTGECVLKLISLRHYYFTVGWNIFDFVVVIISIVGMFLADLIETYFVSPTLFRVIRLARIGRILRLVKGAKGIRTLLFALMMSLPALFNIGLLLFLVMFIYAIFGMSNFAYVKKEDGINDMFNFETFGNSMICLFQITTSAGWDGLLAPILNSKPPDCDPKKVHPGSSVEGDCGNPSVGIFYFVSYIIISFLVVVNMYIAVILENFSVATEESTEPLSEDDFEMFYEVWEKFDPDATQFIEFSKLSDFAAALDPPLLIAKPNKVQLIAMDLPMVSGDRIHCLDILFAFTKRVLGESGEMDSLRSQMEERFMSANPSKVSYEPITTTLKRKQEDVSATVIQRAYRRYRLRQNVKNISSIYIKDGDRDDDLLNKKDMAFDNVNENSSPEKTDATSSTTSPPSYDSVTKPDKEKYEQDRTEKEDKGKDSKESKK
# T2 sequence (Q9NY46 whole entry): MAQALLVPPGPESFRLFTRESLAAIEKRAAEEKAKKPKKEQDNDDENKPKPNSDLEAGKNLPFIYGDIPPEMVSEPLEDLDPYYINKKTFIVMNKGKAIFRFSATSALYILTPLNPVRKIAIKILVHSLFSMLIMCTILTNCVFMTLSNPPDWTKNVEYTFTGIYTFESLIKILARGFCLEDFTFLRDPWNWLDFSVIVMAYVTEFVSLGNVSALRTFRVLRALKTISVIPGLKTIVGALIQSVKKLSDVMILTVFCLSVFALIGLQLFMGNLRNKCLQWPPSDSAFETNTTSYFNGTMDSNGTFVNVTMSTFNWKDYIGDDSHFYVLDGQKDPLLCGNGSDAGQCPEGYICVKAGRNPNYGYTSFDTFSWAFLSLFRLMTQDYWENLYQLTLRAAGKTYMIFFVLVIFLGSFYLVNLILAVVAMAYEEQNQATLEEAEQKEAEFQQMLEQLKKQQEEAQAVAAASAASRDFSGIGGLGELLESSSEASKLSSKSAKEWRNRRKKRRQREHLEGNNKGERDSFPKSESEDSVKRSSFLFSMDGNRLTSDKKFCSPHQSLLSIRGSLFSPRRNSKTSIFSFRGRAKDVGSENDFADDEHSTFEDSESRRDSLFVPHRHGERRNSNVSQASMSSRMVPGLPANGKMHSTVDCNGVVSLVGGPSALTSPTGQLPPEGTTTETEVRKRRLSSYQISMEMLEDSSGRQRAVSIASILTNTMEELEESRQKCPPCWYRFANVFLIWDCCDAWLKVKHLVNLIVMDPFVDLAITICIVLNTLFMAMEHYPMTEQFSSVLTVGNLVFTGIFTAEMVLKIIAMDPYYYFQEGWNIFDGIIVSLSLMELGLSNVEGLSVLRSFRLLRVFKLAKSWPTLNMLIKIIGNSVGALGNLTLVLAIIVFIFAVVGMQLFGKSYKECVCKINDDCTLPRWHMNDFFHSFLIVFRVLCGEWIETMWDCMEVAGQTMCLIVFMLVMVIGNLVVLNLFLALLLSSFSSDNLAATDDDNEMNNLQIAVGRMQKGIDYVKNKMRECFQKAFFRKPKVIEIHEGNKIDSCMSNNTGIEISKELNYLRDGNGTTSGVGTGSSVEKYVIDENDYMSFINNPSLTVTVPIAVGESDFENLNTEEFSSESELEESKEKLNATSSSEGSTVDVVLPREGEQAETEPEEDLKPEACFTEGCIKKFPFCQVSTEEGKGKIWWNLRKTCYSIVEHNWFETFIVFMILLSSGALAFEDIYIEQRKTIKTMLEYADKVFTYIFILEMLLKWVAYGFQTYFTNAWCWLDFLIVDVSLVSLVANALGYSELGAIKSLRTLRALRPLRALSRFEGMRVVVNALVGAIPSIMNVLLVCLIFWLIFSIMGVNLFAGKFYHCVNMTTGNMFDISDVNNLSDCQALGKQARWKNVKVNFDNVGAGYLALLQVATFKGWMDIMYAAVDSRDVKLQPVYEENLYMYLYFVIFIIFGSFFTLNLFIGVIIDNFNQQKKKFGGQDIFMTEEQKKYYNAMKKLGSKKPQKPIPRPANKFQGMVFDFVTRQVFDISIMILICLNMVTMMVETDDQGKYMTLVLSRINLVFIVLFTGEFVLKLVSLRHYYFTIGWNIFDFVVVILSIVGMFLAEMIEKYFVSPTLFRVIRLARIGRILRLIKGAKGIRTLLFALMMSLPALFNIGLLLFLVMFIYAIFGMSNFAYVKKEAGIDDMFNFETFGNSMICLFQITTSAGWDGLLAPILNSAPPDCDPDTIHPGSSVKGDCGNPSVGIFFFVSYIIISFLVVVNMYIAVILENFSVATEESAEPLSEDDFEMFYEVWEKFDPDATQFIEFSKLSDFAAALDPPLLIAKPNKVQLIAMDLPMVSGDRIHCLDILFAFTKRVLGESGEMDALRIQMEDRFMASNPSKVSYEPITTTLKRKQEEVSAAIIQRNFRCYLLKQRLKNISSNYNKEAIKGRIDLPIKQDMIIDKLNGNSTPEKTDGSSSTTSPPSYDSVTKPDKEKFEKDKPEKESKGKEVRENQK
smiles,measurement,setting,value
"CC(C)(C)c1csc(Nc2ccc(S(=O)(=O)Nc3nccs3)c(OC(F)(F)F)c2)n1 [Compound 11, 4-(4-tert-Butyl-thiazol-2-ylamino)-N-thiazol-2-yl-2-trifluoromethoxy-benzenesulfonamide]",pIC50,hSCN9A; [1],5.00 to 5.70
same,pIC50,hSCN3A; [1],5.00 to 5.70
"Cc1cnc(NS(=O)(=O)c2ccc(Nc3nc(Cc4ccc(Cl)cc4)cs3)cc2F)s1 [Compound 108, 4-(4-(4-chlorobenzyl)thiazol-2-ylamino)-2-fluoro-N-(5-methylthiazol-2-yl)benzenesulfonamide]",pIC50,hSCN9A; [2],5.00 to 5.70
same,pIC50,hSCN3A; [3],5.00 to 5.70
"CC(=O)c1sc(Nc2ccc(S(=O)(=O)Nc3nccs3)c(F)c2)nc1C [Compound 9, 4-(5-Acetyl-4-methyl-thiazol-2-ylamino)-2-fluoro-N-thiazol-2-yl-benzenesulfonamide]",pIC50,hSCN9A; [1],5.00 to 5.70
same,pIC50,hSCN3A; [1],5.00 to 5.70
"O=S(=O)(Nc1nccs1)c1ccc(Nc2cnn(Cc3ccc(Cl)cc3)c2)cc1F [Compound 33, 4-(1-(4-chlorobenzyl)-1H-pyrazol-4-ylamino)-2-fluoro-N-(thiazol-2-yl)benzenesulfonamide]",pIC50,hSCN9A; [1],> 5.70
same,pIC50,hSCN3A; [1],> 5.70
"COc1ccc(Cc2csc(Nc3ccc(S(=O)(=O)Nc4nccs4)c(F)c3)n2)cc1 [Compound 3, 2-Fluoro-4-[4-(4-methoxy-benzyl)-thiazol-2-ylamino]-N-thiazol-2-yl-benzenesulfonamide]",pIC50,hSCN9A; [1],< 5.00
same,pIC50,hSCN3A; [1],> 5.70
"O=S(=O)(Nc1nccs1)c1ccc(Nc2nc3cc(Cl)ccc3[nH]2)cc1 [Compound 99, 4-(5-chloro-1H-benzo[d]imidazol-2-ylamino)-N-(thiazol-2-yl)benzenesulfonamide]",pIC50,hSCN9A; [2],5.00 to 5.70
same,pIC50,hSCN3A; [3],> 5.70
"COc1ccnc(Nc2ccc(S(=O)(=O)Nc3cc(C)on3)cc2)n1 [Compound 86, 4-(4-methoxypyrimidin-2-ylamino)-N-(5-methylisoxazol-3-yl)benzenesulfonamide]",pIC50,hSCN3A; [3],< 6.00
"Cc1cc(NS(=O)(=O)c2ccc(Nc3nccc(OCc4ccc(C(F)(F)F)cc4)n3)cc2)no1 [Compound 87, N-(5-methylisoxazol-3-yl)-4-(4-(4-(trifluoromethyl)benzyloxy)pyrimidin-2-ylamino)benzenesulfonamide]",pIC50,hSCN3A; [3],< 6.00
"O=S(=O)(Nc1nccs1)c1ccc(Nc2nc(CCCCl)cs2)cc1 [Compound 59, 4-(4-(3-chloropropyl)thiazol-2-ylamino)-N-(thiazol-2-yl)benzenesulfonamide]",pIC50,hSCN3A; [3],> 5.70
"Cc1cc(Nc2ccc(S(=O)(=O)Nc3nccs3)cc2)n(-c2ccc(Cl)cc2)n1 [Compound 137, 4-(1-(4-chlorophenyl)-3-methyl-1H-pyrazol-5-ylamino)-N-(thiazol-2-yl)benzenesulfonamide]",pIC50,hSCN9A; [2],5.00 to 5.70
"O=S(=O)(Nc1nccs1)c1ccc(Nc2cnn(C(c3ccccc3)c3ccccc3)c2)cc1F [Compound 171, 4-(1-benzhydryl-1H-pyrazol-4-ylamino)-2-fluoro-N-(thiazol-2-yl)benzenesulfonamide]",pIC50,hSCN9A; [2],> 5.70
"Cc1cc(NS(=O)(=O)c2ccc(Nc3ccnc(OCc4ccc(C(F)(F)F)cc4)n3)cc2)no1 [Compound 88, N-(5-methylisoxazol-3-yl)-4-(2-(4-(trifluoromethyl)benzyloxy)pyrimidin-4-ylamino)benzenesulfonamide]",pIC50,hSCN3A; [3],5.00 to 5.70
"Cc1nn(C)c(Nc2ccc(S(=O)(=O)Nc3nccs3)cc2)c1-c1ccccc1 [Compound 122, 4-(1,3-dimethyl-4-phenyl-1H-pyrazol-5-ylamino)-N-(thiazol-2-yl)benzenesulfonamide]",pIC50,hSCN9A; [2],< 6.00
"Cc1cc(Nc2ccc(S(=O)(=O)Nc3nc(C)ns3)c(F)c2)n(-c2ccccc2)n1 [Compound 236, 2-fluoro-N-(3-methyl-1,2,4-thiadiazol-5-yl)-4-(3-methyl-1-phenyl-1H-pyrazol-5-ylamino)benzenesulfonamide]",pIC50,hSCN9A; [2],5.00 to 5.70
"COc1ccc(Cn2ccc(Nc3ccc(S(=O)(=O)Nc4nccs4)c(F)c3)n2)cc1 [Compound 224, 2-fluoro-4-(1-(4-methoxybenzyl)-1H-pyrazol-3-ylamino)-N-(thiazol-2-yl)benzenesulfonamide]",pIC50,hSCN9A; [2],> 5.70
"O=S(=O)(Nc1nccs1)c1ccc2nn(Cc3ccc(OC(F)(F)F)cc3)cc2c1 [Compound 275, N-(thiazol-2-yl)-2-(4-(trifluoromethoxy)benzyl)-2H-indazole-5-sulfonamide]",pIC50,hSCN9A; [2],5.00 to 5.70
"Cc1cc(Nc2cc(F)c(S(=O)(=O)Nc3nccs3)cc2F)n(-c2ccccc2)n1 [Compound 267, 2,5-difluoro-4-(3-methyl-1-phenyl-1H-pyrazol-5-ylamino)-N-(thiazol-2-yl)benzenesulfonamide]",pIC50,hSCN9A; [2],> 5.70
"O=S(=O)(Nc1nccs1)c1ccc(Nc2nc3ccccc3o2)cc1 [Compound 114, 4-(benzo[d]oxazol-2-ylamino)-N-(thiazol-2-yl)benzenesulfonamide]",pIC50,hSCN9A; [2],5.00 to 5.70
"Cn1nc(Cc2cccc(Cl)c2)cc1Nc1ccc(S(=O)(=O)Nc2nccs2)cc1 [Compound 218, 4-(3-(3-chlorobenzyl)-1-methyl-1H-pyrazol-5-ylamino)-N-(thiazol-2-yl)benzenesulfonamide]",pIC50,hSCN9A; [2],> 5.70
"CC(C)(C)n1nc(Cc2ccc(Cl)c(F)c2)cc1Nc1ccc(S(=O)(=O)Nc2nccs2)c(F)c1 [Compound 166, 4-(1-tert-butyl-3-(4-chloro-3-fluorobenzyl)-1H-pyrazol-5-ylamino)-2-fluoro-N-(thiazol-2-yl)benzenesulfonamide]",pIC50,hSCN9A; [2],> 5.70
"Cc1cc(Nc2ccc(S(=O)(=O)Nc3nccs3)c(F)c2)n(-c2cc(F)ccc2C)n1 [Compound 186, 2-fluoro-4-(1-(5-fluoro-2-methylphenyl)-3-methyl-1H-pyrazol-5-ylamino)-N-(thiazol-2-yl)benzenesulfonamide]",pIC50,hSCN9A; [2],> 5.70
"O=S(=O)(Nc1nccs1)c1ccc(Nc2ccn(Cc3ccc(Cl)cc3)n2)cc1C(F)(F)F [Compound 212, 4-(1-(4-chlorobenzyl)-1H-pyrazol-3-ylamino)-N-(thiazol-2-yl)-2-(trifluoromethyl)benzenesulfonamide]",pIC50,hSCN9A; [2],5.00 to 5.70
"Cc1ccc(Cc2cc(Nc3ccc(S(=O)(=O)Nc4nccs4)c(F)c3)n(C(C)(C)C)n2)cc1 [Compound 157, 4-(1-tert-butyl-3-(4-methylbenzyl)-1H-pyrazol-5-ylamino)-2-fluoro-N-(thiazol-2-yl)benzenesulfonamide]",pIC50,hSCN9A; [2],> 5.70
"Cc1cc(Nc2ccc(S(=O)(=O)Nc3nccs3)cc2)n(CC2CCCCC2)n1 [Compound 132, 4-(1-(cyclohexylmethyl)-3-methyl-1H-pyrazol-5-ylamino)-N-(thiazol-2-yl)benzenesulfonamide]",pIC50,hSCN9A; [2],< 6.00
"Cn1nc(C2(c3ccc(Cl)cc3)CC2)cc1Nc1ccc(S(=O)(=O)Nc2nccs2)cc1F [Compound 142, 4-(3-(1-(4-chlorophenyl)cyclopropyl)-1-methyl-1H-pyrazol-5-ylamino)-3-fluoro-N-(thiazol-2-yl)benzenesulfonamide]",pIC50,hSCN9A; [2],> 5.70
"COc1ccc(OC(F)(F)F)cc1Cn1cc(Nc2ccc(S(=O)(=O)Nc3nccs3)c(F)c2)cn1 [Compound 230, 2-fluoro-4-(1-(2-methoxy-5-(trifluoromethoxy)benzyl)-1H-pyrazol-4-ylamino)-N-(thiazol-2-yl)benzenesulfonamide]",pIC50,hSCN9A; [2],> 5.70
